Patent US9682141B2, “Combination of kinase inhibitors and uses thereof” (INTELLIKINE LLC, priority 2011, dated 2017)

Assays:
Assay type in all cases: biochemical
PI3K γ = PI3K γ (Homo sapiens (Human), UniProt P48736); assay: PI 3-Kinase (human) HTRF assay, p110γ; conditions: read-out: PI3K γ IC50
PI3K β = PI3K β (Homo sapiens (Human), UniProt P42338); assay: PI 3-Kinase (human) HTRF assay, p110β/p85α
PI3K δ = PI3K δ (Homo sapiens (Human), UniProt O00329); assay: PI 3-Kinase (human) HTRF assay, p110δ/p85α
PI3K α = PI3K α (Homo sapiens (Human), UniProt P42336); assay: PI 3-Kinase (human) HTRF assay, p110α/p85α
Chain of PI3K α (P42336 whole entry): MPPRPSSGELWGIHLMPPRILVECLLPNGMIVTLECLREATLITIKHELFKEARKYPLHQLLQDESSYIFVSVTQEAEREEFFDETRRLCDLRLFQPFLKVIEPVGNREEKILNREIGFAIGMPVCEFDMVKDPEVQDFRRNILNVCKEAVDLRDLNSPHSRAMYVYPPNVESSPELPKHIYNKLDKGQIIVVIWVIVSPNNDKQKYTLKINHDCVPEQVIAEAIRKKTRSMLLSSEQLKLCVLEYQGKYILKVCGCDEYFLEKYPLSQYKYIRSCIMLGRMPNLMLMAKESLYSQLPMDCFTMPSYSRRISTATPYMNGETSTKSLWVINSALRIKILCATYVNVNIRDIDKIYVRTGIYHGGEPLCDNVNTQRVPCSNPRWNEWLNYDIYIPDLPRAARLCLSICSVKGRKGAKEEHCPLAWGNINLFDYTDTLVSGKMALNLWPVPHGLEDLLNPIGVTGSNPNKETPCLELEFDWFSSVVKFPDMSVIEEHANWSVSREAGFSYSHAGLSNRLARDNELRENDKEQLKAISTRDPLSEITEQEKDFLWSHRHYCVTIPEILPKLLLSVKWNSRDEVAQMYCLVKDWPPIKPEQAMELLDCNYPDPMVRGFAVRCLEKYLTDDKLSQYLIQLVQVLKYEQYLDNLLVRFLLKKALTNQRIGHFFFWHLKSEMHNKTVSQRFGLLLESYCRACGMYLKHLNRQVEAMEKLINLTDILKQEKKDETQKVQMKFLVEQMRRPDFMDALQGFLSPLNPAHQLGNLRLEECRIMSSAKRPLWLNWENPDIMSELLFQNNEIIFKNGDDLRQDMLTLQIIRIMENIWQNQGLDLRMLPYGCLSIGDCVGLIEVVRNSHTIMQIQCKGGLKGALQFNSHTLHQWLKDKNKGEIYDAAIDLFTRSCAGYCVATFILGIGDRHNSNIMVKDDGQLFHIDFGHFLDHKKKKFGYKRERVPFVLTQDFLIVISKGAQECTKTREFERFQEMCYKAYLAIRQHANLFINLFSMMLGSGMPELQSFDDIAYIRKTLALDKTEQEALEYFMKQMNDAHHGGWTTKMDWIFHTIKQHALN
Chain of PI3K α (P27986 whole entry partner): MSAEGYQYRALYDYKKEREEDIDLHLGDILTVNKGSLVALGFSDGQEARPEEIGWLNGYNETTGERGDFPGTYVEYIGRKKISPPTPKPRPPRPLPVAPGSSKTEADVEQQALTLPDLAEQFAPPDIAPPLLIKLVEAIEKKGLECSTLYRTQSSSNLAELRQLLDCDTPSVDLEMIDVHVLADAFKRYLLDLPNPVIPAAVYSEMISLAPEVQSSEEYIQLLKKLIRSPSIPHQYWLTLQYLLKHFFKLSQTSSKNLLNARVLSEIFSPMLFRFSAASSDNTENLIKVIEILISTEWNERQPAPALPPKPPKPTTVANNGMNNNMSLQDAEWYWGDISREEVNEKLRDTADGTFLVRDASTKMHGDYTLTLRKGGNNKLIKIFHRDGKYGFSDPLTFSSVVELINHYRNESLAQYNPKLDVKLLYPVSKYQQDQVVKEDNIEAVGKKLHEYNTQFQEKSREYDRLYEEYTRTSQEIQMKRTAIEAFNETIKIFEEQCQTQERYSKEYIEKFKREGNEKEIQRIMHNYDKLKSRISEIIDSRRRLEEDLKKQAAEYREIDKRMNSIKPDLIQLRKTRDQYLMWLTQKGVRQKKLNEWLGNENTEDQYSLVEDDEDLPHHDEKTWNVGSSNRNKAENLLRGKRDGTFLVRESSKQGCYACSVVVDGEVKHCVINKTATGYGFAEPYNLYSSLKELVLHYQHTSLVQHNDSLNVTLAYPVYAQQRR

Chain of PI3K β (P42338 whole entry): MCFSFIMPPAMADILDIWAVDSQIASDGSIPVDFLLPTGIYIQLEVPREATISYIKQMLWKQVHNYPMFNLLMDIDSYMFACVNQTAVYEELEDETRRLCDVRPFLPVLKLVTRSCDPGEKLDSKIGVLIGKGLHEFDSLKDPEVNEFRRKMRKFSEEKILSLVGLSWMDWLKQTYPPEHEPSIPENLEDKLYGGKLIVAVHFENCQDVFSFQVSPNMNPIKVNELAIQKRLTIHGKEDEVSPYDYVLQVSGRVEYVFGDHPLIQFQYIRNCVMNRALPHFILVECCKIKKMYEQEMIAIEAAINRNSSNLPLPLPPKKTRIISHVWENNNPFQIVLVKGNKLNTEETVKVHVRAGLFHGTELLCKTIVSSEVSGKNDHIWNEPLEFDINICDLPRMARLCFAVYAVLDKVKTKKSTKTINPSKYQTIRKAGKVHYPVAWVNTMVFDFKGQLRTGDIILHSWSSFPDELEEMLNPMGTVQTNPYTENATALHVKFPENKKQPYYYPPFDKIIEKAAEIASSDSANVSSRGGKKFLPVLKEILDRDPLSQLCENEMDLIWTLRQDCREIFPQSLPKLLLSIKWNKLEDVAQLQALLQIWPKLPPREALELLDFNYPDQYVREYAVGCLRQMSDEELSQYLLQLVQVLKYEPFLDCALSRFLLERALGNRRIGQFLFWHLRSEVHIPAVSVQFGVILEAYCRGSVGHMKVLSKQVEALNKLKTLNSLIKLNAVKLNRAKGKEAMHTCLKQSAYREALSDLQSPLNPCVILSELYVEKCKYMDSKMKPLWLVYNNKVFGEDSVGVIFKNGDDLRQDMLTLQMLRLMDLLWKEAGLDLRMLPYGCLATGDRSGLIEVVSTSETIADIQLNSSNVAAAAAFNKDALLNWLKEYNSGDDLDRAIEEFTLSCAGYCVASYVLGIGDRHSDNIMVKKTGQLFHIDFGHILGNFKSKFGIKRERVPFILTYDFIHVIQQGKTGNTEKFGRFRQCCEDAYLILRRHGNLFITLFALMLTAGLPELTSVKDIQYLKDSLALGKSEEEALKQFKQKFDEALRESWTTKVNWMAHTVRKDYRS
Chain of PI3K β (P27986 whole entry partner): as the sequence (P27986 whole entry partner) above
Chain of PI3K γ (P48736 whole entry): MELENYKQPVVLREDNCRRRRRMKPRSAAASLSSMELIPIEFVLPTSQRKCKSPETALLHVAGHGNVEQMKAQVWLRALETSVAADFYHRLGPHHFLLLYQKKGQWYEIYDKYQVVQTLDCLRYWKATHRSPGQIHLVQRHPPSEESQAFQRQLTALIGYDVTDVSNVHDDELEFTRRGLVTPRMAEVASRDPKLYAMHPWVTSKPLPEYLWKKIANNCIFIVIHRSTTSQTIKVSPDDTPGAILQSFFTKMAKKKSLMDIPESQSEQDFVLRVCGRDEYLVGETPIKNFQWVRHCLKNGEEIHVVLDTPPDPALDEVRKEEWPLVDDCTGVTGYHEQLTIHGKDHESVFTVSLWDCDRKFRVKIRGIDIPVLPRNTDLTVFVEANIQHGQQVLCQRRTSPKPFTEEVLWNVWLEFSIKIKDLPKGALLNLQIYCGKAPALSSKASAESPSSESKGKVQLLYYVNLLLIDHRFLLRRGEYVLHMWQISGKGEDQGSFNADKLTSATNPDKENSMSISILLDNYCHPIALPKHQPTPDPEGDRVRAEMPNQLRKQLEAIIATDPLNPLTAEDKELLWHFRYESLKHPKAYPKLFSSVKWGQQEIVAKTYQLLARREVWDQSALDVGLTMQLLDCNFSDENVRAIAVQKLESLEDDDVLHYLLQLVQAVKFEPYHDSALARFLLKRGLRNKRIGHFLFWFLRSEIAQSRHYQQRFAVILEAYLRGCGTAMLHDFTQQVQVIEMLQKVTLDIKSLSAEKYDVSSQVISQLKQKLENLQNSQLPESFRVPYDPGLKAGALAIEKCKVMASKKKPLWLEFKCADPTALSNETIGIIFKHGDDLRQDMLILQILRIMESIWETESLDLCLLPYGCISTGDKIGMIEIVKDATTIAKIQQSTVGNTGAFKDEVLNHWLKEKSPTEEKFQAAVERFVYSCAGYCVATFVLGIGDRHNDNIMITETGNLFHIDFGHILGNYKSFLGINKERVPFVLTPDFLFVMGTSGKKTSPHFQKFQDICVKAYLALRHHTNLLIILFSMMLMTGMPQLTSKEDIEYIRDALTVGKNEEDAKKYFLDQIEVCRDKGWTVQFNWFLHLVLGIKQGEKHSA
Chain of PI3K δ (O00329 whole entry): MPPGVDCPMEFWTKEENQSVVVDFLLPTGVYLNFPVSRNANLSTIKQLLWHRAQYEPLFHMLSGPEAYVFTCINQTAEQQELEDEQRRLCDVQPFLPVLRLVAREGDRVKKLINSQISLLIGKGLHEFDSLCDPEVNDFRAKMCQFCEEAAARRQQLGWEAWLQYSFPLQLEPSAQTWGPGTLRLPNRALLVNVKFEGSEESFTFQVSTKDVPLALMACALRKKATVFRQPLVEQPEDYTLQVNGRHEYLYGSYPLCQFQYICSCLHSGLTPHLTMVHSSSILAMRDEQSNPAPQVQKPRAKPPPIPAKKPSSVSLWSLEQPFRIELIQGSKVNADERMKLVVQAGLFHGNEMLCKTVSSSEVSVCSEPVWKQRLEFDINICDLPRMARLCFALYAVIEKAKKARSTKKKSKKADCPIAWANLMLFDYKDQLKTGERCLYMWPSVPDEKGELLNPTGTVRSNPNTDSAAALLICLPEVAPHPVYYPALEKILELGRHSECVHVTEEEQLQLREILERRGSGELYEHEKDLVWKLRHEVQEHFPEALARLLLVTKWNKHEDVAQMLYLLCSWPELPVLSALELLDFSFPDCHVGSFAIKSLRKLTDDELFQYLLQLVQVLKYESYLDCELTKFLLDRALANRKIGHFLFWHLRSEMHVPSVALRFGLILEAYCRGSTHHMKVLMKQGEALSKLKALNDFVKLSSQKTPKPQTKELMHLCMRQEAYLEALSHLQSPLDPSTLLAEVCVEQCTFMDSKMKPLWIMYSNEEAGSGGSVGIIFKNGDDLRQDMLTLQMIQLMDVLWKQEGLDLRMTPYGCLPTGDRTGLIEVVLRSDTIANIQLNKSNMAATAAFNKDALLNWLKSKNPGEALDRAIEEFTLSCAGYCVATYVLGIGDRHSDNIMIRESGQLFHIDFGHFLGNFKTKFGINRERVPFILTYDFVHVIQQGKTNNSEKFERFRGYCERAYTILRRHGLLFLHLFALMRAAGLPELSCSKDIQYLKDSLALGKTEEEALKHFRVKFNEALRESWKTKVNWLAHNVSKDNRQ
Chain of PI3K δ (P27986 whole entry partner): as the sequence (P27986 whole entry partner) above

Row | IC50 (PI3K γ) | IC50 (PI3K β) | IC50 (PI3K δ) | IC50 (PI3K α) | SMILES
1 | < 1 µM | < 0.1 µM | < 10 µM | < 0.1 µM | Nc1nc2cc(-c3ccc4ncc(N5CCNCC5)nc4c3)ccc2o1
2 | < 0.1 µM | < 10 µM | < 0.1 µM | < 0.1 µM | Nc1nc2cc(-c3ccc4ncnc(NC5CCN(C(=O)C6CC6)CC5)c4c3)ccc2o1
3 | < 1 µM | < 1 µM | < 10 µM | < 0.1 µM | CS(=O)(=O)CCN1CCN(c2cnc3ccc(-c4ccc5oc(N)nc5c4)cc3n2)CC1
4 | > 10 µM | > 10 µM | > 10 µM | > 10 µM | Cc1nc2ccc(-c3ccc4oc(N)nc4c3)cn2c1C(=O)N1CCN(C)CC1
5 | > 10 µM | > 10 µM | > 10 µM | > 10 µM | Cc1nc2ccc(-c3ccc4oc(N)nc4c3)cn2c1C(=O)N1CCOCC1
6 | < 0.1 µM | < 1 µM | < 10 µM | < 0.1 µM | Cn1cc(-c2cnc3ccc(-c4ccc5oc(N)nc5c4)cc3n2)cn1
7 | < 0.1 µM | < 10 µM | < 0.1 µM | < 0.1 µM | CS(=O)(=O)N1CCC(Nc2cnc3ccc(-c4ccc5oc(N)nc5c4)cc3n2)CC1
8 | < 0.1 µM | < 10 µM | < 1 µM | < 0.1 µM | Nc1nc2cc(-c3ccc4ncc(NC5CCOCC5)nc4c3)ccc2o1
9 | > 10 µM | > 10 µM | > 10 µM | < 10 µM | Nc1nc2cc(-c3ccc4ncc(C(=O)N5CCOCC5)cc4c3)ccc2o1
10 | < 0.1 µM | > 10 µM | > 10 µM | < 0.1 µM | Nc1nc2cc(-c3ccc4ncc(N5CCS(=O)(=O)CC5)nc4c3)ccc2o1
11 | < 1 µM | < 10 µM | < 1 µM | < 0.1 µM | Nc1nc2cc(-c3ccc4ncc(N5CCC(O)CC5)nc4c3)ccc2o1
12 | < 1 µM | < 0.1 µM | < 10 µM | < 0.1 µM | Nc1nc2cc(-c3ccc4ncc(N5CCN(CCO)CC5)nc4c3)ccc2o1
13 | < 10 µM | < 10 µM | < 1 µM | < 0.1 µM | CC(C)N1CCC(Nc2ncnc3ccc(-c4ccc5oc(N)nc5c4)cc23)CC1
14 | < 0.1 µM | < 1 µM | < 1 µM | < 0.1 µM | CC(C)(C#N)c1ccc(Nc2ncnc3ccc(-c4ccc5oc(N)nc5c4)cc23)cc1
15 | < 1 µM | < 1 µM | < 1 µM | < 0.1 µM | CN(C)CC(=O)N1CCC(Nc2ncnc3ccc(-c4ccc5oc(N)nc5c4)cc23)CC1
16 | < 10 µM | > 10 µM | > 10 µM | < 10 µM | CN1CCN(C(=O)c2cnc3ccc(-c4ccc5oc(N)nc5c4)nn23)CC1
17 | < 1 µM | < 10 µM | > 10 µM | < 1 µM | Nc1nc2cc(-c3ccc4ncc(C(=O)N5CCOCC5)n4n3)ccc2o1
18 | < 10 µM | > 10 µM | > 10 µM | < 10 µM | C[C@@H]1CN(C(=O)c2cnc3ccc(-c4ccc5oc(N)nc5c4)cn23)C[C@H](C)O1
19 | < 10 µM | > 10 µM | > 10 µM | < 1 µM | Nc1nc2cc(-c3ccc4ncc(C(=O)N5CCS(=O)(=O)CC5)n4c3)ccc2o1

Row | IC50 (PI3K γ) | IC50 (PI3K β) | IC50 (PI3K δ) | IC50 (PI3K α) | SMILES
20 | < 0.1 µM | < 10 µM | > 10 µM | < 0.1 µM | Nc1nc2cc(-c3ccc4ncc(-c5cnn(CCO)c5)nc4c3)ccc2o1
21 | > 10 µM | < 10 µM | > 10 µM | < 0.1 µM | Nc1nc2cc(-c3ccc4ncc(C(=O)N5CCNCC5)n4c3)ccc2o1
22 | < 1 µM | > 10 µM | < 10 µM | < 0.1 µM | CS(=O)(=O)N1CCN(C(=O)c2cnc3ccc(-c4ccc5oc(N)nc5c4)cn23)CC1
23 | < 1 µM | > 10 µM | > 10 µM | < 0.1 µM | CC(=O)N1CCN(C(=O)c2cnc3ccc(-c4ccc5oc(N)nc5c4)cn23)CC1
24 | < 1 µM | > 10 µM | > 10 µM | < 0.1 µM | Nc1nc2ccc(-c3ccc4ncc(N5CCOCC5)nc4c3)cc2s1
25 | < 10 µM | < 0.1 µM | > 10 µM | < 0.1 µM | CN1CCN(c2cnc3ccc(-c4ccc5nc(N)sc5c4)cc3n2)CC1
26 | < 1 µM | < 1 µM | > 10 µM | < 0.1 µM | Nc1nc2cc(-c3ccc4ncc(N5CCOCC5)nc4c3)ccc2s1
27 | < 1 µM | < 1 µM | > 10 µM | < 0.1 µM | Nc1nc2ccc(-c3ccc4ncc(N5CCOCC5)nc4c3)cc2o1
28 | < 10 µM | < 0.1 µM | > 10 µM | < 1 µM | CN1CCN(c2cnc3ccc(-c4ccc5nc(N)oc5c4)cc3n2)CC1
29 | > 10 µM | < 1 µM | < 10 µM | < 0.1 µM | CNC(=O)CN1CCN(c2cnc3ccc(-c4ccc5oc(N)nc5c4)cc3n2)CC1
30 | < 0.1 µM | < 0.1 µM | < 0.1 µM | < 0.1 µM | Nc1nc2cc(-c3ccc4ncc(N5CCN(C(=O)[C@@H]6CCCN6)CC5)nc4c3)ccc2o1
31 | > 10 µM | > 10 µM | > 10 µM | > 10 µM | Nc1nc2cc(-c3cn4c(C(=O)N5CCOCC5)cnc4cn3)ccc2o1
32 | > 10 µM | > 10 µM | > 10 µM | < 10 µM | CN1CCN(C(=O)c2cnc3cnc(-c4ccc5oc(N)nc5c4)cn23)CC1
33 | < 1 µM | < 1 µM | > 10 µM | < 1 µM | Nc1nc2ccc(-c3ccc4ncc(C(=O)N5CCOCC5)n4c3)cc2o1
34 | < 1 µM | > 10 µM | < 10 µM | < 1 µM | Nc1nc2ccc(-c3ccc4ncc(C(=O)N5CCOCC5)n4c3)cc2s1
35 | < 1 µM | < 10 µM | > 10 µM | < 1 µM | Nc1nc2cc(-c3ccc4ncc(C(=O)N5CCOCC5)n4c3)ccc2s1
36 | < 10 µM | < 0.1 µM | > 10 µM | < 1 µM | CN1CCN(c2cnc3ccc(-c4ccc5sc(N)nc5c4)cc3n2)CC1
37 | < 0.1 µM | < 10 µM | < 0.1 µM | < 0.1 µM | Nc1nc2cc(-c3ccc4ncc(N[C@H]5CC[C@H](O)CC5)nc4c3)ccc2o1
38 | > 10 µM | > 10 µM | > 10 µM | > 10 µM | CC(=O)Nc1nc2ccc(-c3nc(N4CCOCC4)c4sc(CN5CCN(S(C)(=O)=O)CC5)cc4n3)cc2s1

Row | IC50 (PI3K γ) | IC50 (PI3K β) | IC50 (PI3K δ) | IC50 (PI3K α) | SMILES
39 | < 1 µM | < 1 µM | < 1 µM | < 1 µM | CC1CN(c2cnc3ccc(-c4ccc5oc(N)nc5c4)cc3n2)CC(C)N1 (stereo not drawn)
40 | < 10 µM | > 10 µM | > 10 µM | < 1 µM | C[C@@H]1CN(c2cnc3ccc(-c4ccc5oc(N)nc5c4)cc3n2)C[C@H](C)O1
41 | < 10 µM | < 1 µM | < 1 µM | < 0.1 µM | CC(N)C(=O)N1CCN(c2cnc3ccc(-c4ccc5oc(N)nc5c4)cc3n2)CC1 (stereo not drawn)
42 | < 10 µM | < 1 µM | > 10 µM | < 1 µM | CN1CCCN(c2cnc3ccc(-c4ccc5oc(N)nc5c4)cc3n2)CC1
43 | < 1 µM | < 1 µM | < 0.1 µM | < 0.1 µM | CN1CC(C(=O)N2CCC(Nc3ncnc4ccc(-c5ccc6oc(N)nc6c5)cc34)CC2)C1
44 | > 10 µM | < 10 µM | > 10 µM | < 1 µM | CN1CCCN(C(=O)c2cnc3ccc(-c4ccc5oc(N)nc5c4)cn23)CC1
45 | < 10 µM | > 10 µM | > 10 µM | < 1 µM | CCN1CCN(C(=O)c2cnc3ccc(-c4ccc5oc(N)nc5c4)cn23)CC1
46 | > 10 µM | > 10 µM | > 10 µM | < 10 µM | CC1CN(C(=O)c2cnc3ccc(-c4ccc5oc(N)nc5c4)cn23)CC(C)N1 (stereo not drawn)
47 | > 10 µM | < 10 µM | > 10 µM | < 1 µM | CN1CCN(C(=O)c2cnc3ccc(-c4ccc5sc(N)nc5c4)cn23)CC1
48 | > 10 µM | < 10 µM | > 10 µM | < 1 µM | CN1CCN(C(=O)c2cnc3ccc(-c4ccc5nc(N)oc5c4)cn23)CC1
49 | > 10 µM | < 10 µM | > 10 µM | < 10 µM | CN1CCN(C(=O)c2cnc3ccc(-c4ccc5nc(N)sc5c4)cn23)CC1
50 | < 10 µM | < 10 µM | < 10 µM | < 1 µM | CC(=O)NC1CCN(C(=O)c2cnc3ccc(-c4ccc5oc(N)nc5c4)cn23)CC1
51 | < 10 µM | > 10 µM | > 10 µM | < 0.1 µM | Nc1nc2cc(-c3ccc4ncc(C(=O)N5CCN(CCO)CC5)n4c3)ccc2o1
52 | < 1 µM | < 0.1 µM | < 10 µM | < 0.1 µM | CC1CN(c2cnc3ccc(-c4ccc5oc(N)nc5c4)cc3n2)CCN1 (stereo not drawn)
53 | > 10 µM | > 10 µM | > 10 µM | < 1 µM | Nc1nc2cc(-c3ccc4ncc(-c5ccnc(N6CCOCC6)c5)nc4c3)ccc2o1
54 | < 1 µM | < 0.1 µM | < 10 µM | < 0.1 µM | CCN1CCN(c2cnc3ccc(-c4ccc5oc(N)nc5c4)cc3n2)CC1
55 | < 1 µM | < 0.1 µM | < 1 µM | < 0.1 µM | Nc1nc2cc(-c3ccc4ncc(N5CCN(CC6CC6)CC5)nc4c3)ccc2o1
56 | < 0.1 µM | < 1 µM | < 10 µM | < 0.1 µM | CNC(=O)N1CCN(c2cnc3ccc(-c4ccc5oc(N)nc5c4)cc3n2)CC1

Row | SMILES | IC50 (PI3K γ) | IC50 (PI3K β) | IC50 (PI3K δ) | IC50 (PI3K α)
57 | CN1CCC(N(C)c2cnc3ccc(-c4ccc5oc(N)nc5c4)cc3n2)CC1 | < 10 µM | < 10 µM | < 1 µM | < 0.1 µM
